Where a SMILES comes first, the peptide text is derived from it. Bridges are numbered along the chain shown (N, C = ends).

Broadly, the Kd is the constant that tells how readily two partners part at equilibrium.

The target of one series is T1, p32 protein (Homo sapiens, UniProt Q07021).
T1 construct: 6xHis; host or cells: Rosetta-gami-2 cells (Novagen); an E. coli strain by own knowledge
T1 sequence (Q07021 74-282): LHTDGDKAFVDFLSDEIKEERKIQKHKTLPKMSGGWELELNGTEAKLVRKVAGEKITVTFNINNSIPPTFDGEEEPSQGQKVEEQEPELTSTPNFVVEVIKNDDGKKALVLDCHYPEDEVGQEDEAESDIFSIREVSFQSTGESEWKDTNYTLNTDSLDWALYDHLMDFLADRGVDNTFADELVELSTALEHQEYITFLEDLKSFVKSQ
The series is described as follows: Fluorescence polarization binding of FAM-labeled peptides to p32 (KD). As to conditions: affinity of binding to p32. As for the experimental part: FIGS. 2A-2D are graphs showing FP- and phage binding-based validation of p32 binding peptides and hit compounds. […] Measurements were performed with PheraStar FS plate reader (BMG Labtech, Ortenberg, Germany) on 384-well plate. (B) Affinity of the 7 hit compounds in dose-dependent (8.25 μM to 100 μM) inhibition of FAM-TT1 binding to p32 in FP assay. (C) Assessment of hit compound binding to a non-target secondary protein, NRP-1, to determine the specificity of the hit compounds in FP assay. A known NRP-1 binding peptide, RPARPAR (SEQ ID NO:18), was used as a control. (D) Effect of the hit compounds on the TT1 phage binding to p32 protein. TT1 phage binding to p32 in the presence of 100 μM hit compounds was determined in ELISA-type of binding assay. Each data point presents average±S.D., n=4.
FIG. 6 is a graph showing the effect of buffer solution on interaction of TT1 and p32. […] The binding was measured by fluorescence polarization (FP) and observed as increased FP value. Binding constants (KD) were calculated by fitting the binding curves into Michaelis-Menten kinetics. […]
Fluorescence polarization (FP)-based assay was used for solution-based screening of compound libraries for p32 binding compounds. […] The protein was purified by IMAC using HIS-select resin (Sigma) with an imidizole gradient from 20-300 mM and eluted fractions were analyzed on analytical SDS-PAGE. […]

The conditions of series [1]: in vivo. An excerpt: Toxicity of peptide, compounds, and compositions can be assessed for toxicity. Useful factors for assessing toxicity include body weight, serum cholesterol and triglyceride, and weight of liver and spleen. Liver and kidney functions can be monitored by blood tests.

For the compound `C[C@@H]1NC(=O)CNC(=O)[C@H](CCCNC(=N)N)NC(=O)[C@H](CCCCN)NC(=O)[C@@H](N)CSSC[C@@H](C(=O)O)NC(=O)[C@H]([C@@H](C)O)NC(=O)[C@H](CO)NC(=O)[C@H](CCCNC(=N)N)NC1=O` [TT1, CKRGARSTC] (H-CKRGARSTC-OH; disulfide 1-9), the Kd at p32 protein was determined as 2300 nM.
With `C[C@@H](O)[C@@H]1NC(=O)[C@H](CCCNC(=N)N)NC(=O)[C@H](CCCCN)NC(=O)[C@H](CC(N)=O)NC(=O)CNC(=O)[C@@H](N)CSSC[C@@H](C(=O)O)NC(=O)CNC(=O)[C@H](CCCNC(=N)N)NC1=O` [LyP-1, CGNKRTRGC], the “toxicity (body weight, serum cholesterol and triglyceride, weight of liver and spleen, liver and kidney functions)” value in series [1] is “no differences between LyP-1 and control groups”.

Source of the values: US20200268832A1, “COMPOSITIONS FOR DELIVERY TO AND TREATMENT OF ATHEROSCLEROTIC PLAQUES” (Sanford Burnham Prebys Medical Discovery Institute, priority 2015, published 2020).
